Key:
Experiment in all cases: relative viability (nuclei count vs DMSO), 5 days (fraction); higher = more cells survive
Sulindac + Linsitinib = compound: CC1=C(CC(=O)O)c2cc(F)ccc2/C1=C\c1ccc([S+](C)[O-])cc1 [Sulindac] + C[C@]1(O)C[C@@H](c2nc(-c3ccc4ccc(-c5ccccc5)nc4c3)c3c(N)nccn32)C1 [Linsitinib] (partner 1 µM)
Method in brief: (§1)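 Lung cancer cell lines in 1536-well plates were dosed by pin tool the day after seeding, either with one drug alone or with a fixed anchor-drug dose plus five library-drug doses (not always all listed) in √10 steps. After 5 days, cells were fixed and their nuclei stained in one step (final 0.05% Triton X-100, 1% formaldehyde, 1 ug/ml Hoechst), then counted on 4× images. Relative viability is the nuclei count in treated wells divided by that in vehicle wells. Values are medians of duplicate plates.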

[1] = compound: CN[C@@H]1C[C@H]2O[C@@](C)([C@@H]1OC)n1c3ccccc3c3c4c(c5c6ccccc6n2c5c31)C(=O)NC4 [Staurosporine] + CC1(C)CCC(c2ccc(Cl)cc2)=C(CN2CCN(c3ccc(C(=O)NS(=O)(=O)c4ccc(N[C@H](CCN5CCOCC5)CSc5ccccc5)c(S(=O)(=O)C(F)(F)F)c4)cc3)CC2)C1 [Navitoclax] (partner 0.5 µM)
Method in brief: as §1

[2] = compound: O=c1[nH]cc(F)c(=O)[nH]1 [5-Fluorouracil] + COc1cc2c(Oc3ccc(NC(=O)C4(C(=O)Nc5ccc(F)cc5)CC4)cc3F)ccnc2cc1OCCCN1CCOCC1 [Foretinib] (partner 0.25 µM)
Method in brief: as §1

[3] = compound: O=c1[nH]cc(F)c(=O)[nH]1 [5-Fluorouracil] + Cc1nc(NC(=O)N2CCC[C@H]2C(N)=O)sc1-c1ccnc(C(C)(C)C(F)(F)F)c1 [Alpelisib] (partner 2 µM)
Method in brief: as §1

Cell Line: NCI-H2085
- relative viability (Sulindac + Linsitinib; first compound 0.08 µM): 0.894
- relative viability (Sulindac + Linsitinib; first compound 0.253 µM): 0.856
- relative viability (Sulindac + Linsitinib; first compound 0.8 µM): 0.876
- relative viability (Sulindac + Linsitinib; first compound 2.53 µM): 0.848
- relative viability (Sulindac + Linsitinib; first compound 8 µM): 0.912
- relative viability ([1]; first compound 0.005 µM): 0.757
- relative viability ([1]; first compound 0.01581 µM): 0.583
- relative viability ([1]; first compound 0.05 µM): 0.541
- relative viability ([1]; first compound 0.1581 µM): 0.415
- relative viability ([1]; first compound 0.5 µM): 0.366
- relative viability ([2]; first compound 0.02 µM): 1.02
- relative viability ([2]; first compound 0.2 µM): 0.899
- relative viability ([2]; first compound 0.6325 µM): 0.93
- relative viability ([2]; first compound 2 µM): 0.592
- relative viability ([3]; first compound 0.02 µM): 0.689
- relative viability ([3]; first compound 0.2 µM): 1.03
- relative viability ([3]; first compound 0.6325 µM): 0.828
- relative viability ([3]; first compound 2 µM): 0.613

Cell Line: LC-2-ad
- relative viability (Sulindac + Linsitinib; first compound 0.08 µM): 0.938
- relative viability (Sulindac + Linsitinib; first compound 0.253 µM): 0.795
- relative viability (Sulindac + Linsitinib; first compound 0.8 µM): 0.816
- relative viability (Sulindac + Linsitinib; first compound 2.53 µM): 0.881
- relative viability (Sulindac + Linsitinib; first compound 8 µM): 0.933
- relative viability ([1]; first compound 0.005 µM): 0.473
- relative viability ([1]; first compound 0.01581 µM): 0.202
- relative viability ([1]; first compound 0.05 µM): 0.172
- relative viability ([1]; first compound 0.1581 µM): 0.0798
- relative viability ([1]; first compound 0.5 µM): 0.0689
- relative viability ([2]; first compound 0.02 µM): 0.979
- relative viability ([2]; first compound 0.2 µM): 0.663
- relative viability ([2]; first compound 0.6325 µM): 0.414
- relative viability ([2]; first compound 2 µM): 0.339
- relative viability ([3]; first compound 0.02 µM): 0.878
- relative viability ([3]; first compound 0.2 µM): 0.884
- relative viability ([3]; first compound 0.6325 µM): 0.514
- relative viability ([3]; first compound 2 µM): 0.339

Cell Line: NCI-H1703
- relative viability (Sulindac + Linsitinib; first compound 0.08 µM): 0.673
- relative viability (Sulindac + Linsitinib; first compound 0.253 µM): 0.873
- relative viability (Sulindac + Linsitinib; first compound 0.8 µM): 0.561
- relative viability (Sulindac + Linsitinib; first compound 2.53 µM): 0.761
- relative viability (Sulindac + Linsitinib; first compound 8 µM): 1.15
- relative viability ([1]; first compound 0.005 µM): 0.293
- relative viability ([1]; first compound 0.01581 µM): 0.207
- relative viability ([1]; first compound 0.05 µM): 0.143
- relative viability ([1]; first compound 0.1581 µM): 0.132
- relative viability ([1]; first compound 0.5 µM): 0.0869
- relative viability ([2]; first compound 0.02 µM): 0.341
- relative viability ([2]; first compound 0.2 µM): 0.383
- relative viability ([2]; first compound 0.6325 µM): 0.341
- relative viability ([2]; first compound 2 µM): 0.348
- relative viability ([3]; first compound 0.02 µM): 0.279
- relative viability ([3]; first compound 0.2 µM): 0.327
- relative viability ([3]; first compound 0.6325 µM): 0.371
- relative viability ([3]; first compound 2 µM): 0.359

Cell Line: EBC-1
- relative viability (Sulindac + Linsitinib; first compound 0.08 µM): 0.937
- relative viability (Sulindac + Linsitinib; first compound 0.253 µM): 1.16
- relative viability (Sulindac + Linsitinib; first compound 0.8 µM): 0.509
- relative viability (Sulindac + Linsitinib; first compound 2.53 µM): 1.04
- relative viability (Sulindac + Linsitinib; first compound 8 µM): 0.989
- relative viability ([1]; first compound 0.005 µM): 0.252
- relative viability ([1]; first compound 0.01581 µM): 0.129
- relative viability ([1]; first compound 0.05 µM): 0.118
- relative viability ([1]; first compound 0.1581 µM): 0.11
- relative viability ([1]; first compound 0.5 µM): 0.094
- relative viability ([2]; first compound 0.02 µM): 0.101
- relative viability ([2]; first compound 0.2 µM): 0.106
- relative viability ([2]; first compound 0.6325 µM): 0.0923
- relative viability ([2]; first compound 2 µM): 0.108
- relative viability ([3]; first compound 0.02 µM): 0.865
- relative viability ([3]; first compound 0.2 µM): 0.841
- relative viability ([3]; first compound 0.6325 µM): 0.792
- relative viability ([3]; first compound 2 µM): 0.612

Cell Line: 201T
- relative viability (Sulindac + Linsitinib; first compound 0.08 µM): 1.06
- relative viability (Sulindac + Linsitinib; first compound 0.253 µM): 1.04
- relative viability (Sulindac + Linsitinib; first compound 0.8 µM): 1.1
- relative viability (Sulindac + Linsitinib; first compound 2.53 µM): 1.02
- relative viability (Sulindac + Linsitinib; first compound 8 µM): 1.01
- relative viability ([1]; first compound 0.005 µM): 1.24
- relative viability ([1]; first compound 0.01581 µM): 1.18
- relative viability ([1]; first compound 0.05 µM): 1.06
- relative viability ([1]; first compound 0.1581 µM): 0.983
- relative viability ([1]; first compound 0.5 µM): 0.761
- relative viability ([2]; first compound 0.02 µM): 1.18
- relative viability ([2]; first compound 0.2 µM): 0.509
- relative viability ([2]; first compound 0.6325 µM): 0.211
- relative viability ([2]; first compound 2 µM): 0.176
- relative viability ([3]; first compound 0.02 µM): 0.979
- relative viability ([3]; first compound 0.2 µM): 0.873
- relative viability ([3]; first compound 0.6325 µM): 0.325
- relative viability ([3]; first compound 2 µM): 0.332

Cell Line: NCI-H2023
- relative viability (Sulindac + Linsitinib; first compound 0.08 µM): 0.808
- relative viability (Sulindac + Linsitinib; first compound 0.253 µM): 0.725
- relative viability (Sulindac + Linsitinib; first compound 0.8 µM): 0.43
- relative viability (Sulindac + Linsitinib; first compound 2.53 µM): 0.712
- relative viability (Sulindac + Linsitinib; first compound 8 µM): 0.757
- relative viability ([1]; first compound 0.005 µM): 0.715
- relative viability ([1]; first compound 0.01581 µM): 0.598
- relative viability ([1]; first compound 0.05 µM): 0.257
- relative viability ([1]; first compound 0.1581 µM): 0.159
- relative viability ([1]; first compound 0.5 µM): 0.0924
- relative viability ([2]; first compound 0.02 µM): 0.757
- relative viability ([2]; first compound 0.2 µM): 0.243
- relative viability ([2]; first compound 0.6325 µM): 0.159
- relative viability ([2]; first compound 2 µM): 0.0994
- relative viability ([3]; first compound 0.02 µM): 0.456
- relative viability ([3]; first compound 0.2 µM): 0.256
- relative viability ([3]; first compound 0.6325 µM): 0.124
- relative viability ([3]; first compound 2 µM): 0.0987

Cell Line: NCI-H1395
- relative viability (Sulindac + Linsitinib; first compound 0.08 µM): 1.09
- relative viability (Sulindac + Linsitinib; first compound 0.253 µM): 1.07
- relative viability (Sulindac + Linsitinib; first compound 0.8 µM): 0.993
- relative viability (Sulindac + Linsitinib; first compound 2.53 µM): 0.948
- relative viability (Sulindac + Linsitinib; first compound 8 µM): 1.18
- relative viability ([1]; first compound 0.005 µM): 1.05
- relative viability ([1]; first compound 0.01581 µM): 0.495
- relative viability ([1]; first compound 0.05 µM): 0.458
- relative viability ([1]; first compound 0.1581 µM): 0.327
- relative viability ([1]; first compound 0.5 µM): 0.301
- relative viability ([2]; first compound 0.02 µM): 0.827
- relative viability ([2]; first compound 0.2 µM): 1.14
- relative viability ([2]; first compound 0.6325 µM): 1.05
- relative viability ([2]; first compound 2 µM): 0.987
- relative viability ([3]; first compound 0.02 µM): 1.1
- relative viability ([3]; first compound 0.2 µM): 1.02
- relative viability ([3]; first compound 0.6325 µM): 1.14
- relative viability ([3]; first compound 2 µM): 0.844

Cell Line: NCI-H23
- relative viability (Sulindac + Linsitinib; first compound 0.08 µM): 0.584
- relative viability (Sulindac + Linsitinib; first compound 0.253 µM): 0.6
- relative viability (Sulindac + Linsitinib; first compound 0.8 µM): 0.32
- relative viability (Sulindac + Linsitinib; first compound 2.53 µM): 0.678
- relative viability (Sulindac + Linsitinib; first compound 8 µM): 0.758
- relative viability ([1]; first compound 0.005 µM): 0.764
- relative viability ([1]; first compound 0.01581 µM): 0.412
- relative viability ([1]; first compound 0.05 µM): 0.257
- relative viability ([1]; first compound 0.1581 µM): 0.2
- relative viability ([1]; first compound 0.5 µM): 0.12
- relative viability ([2]; first compound 0.02 µM): 1.08
- relative viability ([2]; first compound 0.2 µM): 0.825
- relative viability ([2]; first compound 0.6325 µM): 0.52
- relative viability ([2]; first compound 2 µM): 0.431
- relative viability ([3]; first compound 0.02 µM): 0.687
- relative viability ([3]; first compound 0.2 µM): 0.728
- relative viability ([3]; first compound 0.6325 µM): 0.425
- relative viability ([3]; first compound 2 µM): 0.312

Cell Line: LU99A
- relative viability (Sulindac + Linsitinib; first compound 0.08 µM): 0.578
- relative viability (Sulindac + Linsitinib; first compound 0.253 µM): 0.524
- relative viability (Sulindac + Linsitinib; first compound 0.8 µM): 0.493
- relative viability (Sulindac + Linsitinib; first compound 2.53 µM): 0.499
- relative viability (Sulindac + Linsitinib; first compound 8 µM): 0.659
- relative viability ([1]; first compound 0.005 µM): 0.876
- relative viability ([1]; first compound 0.01581 µM): 0.589
- relative viability ([1]; first compound 0.05 µM): 0.359
- relative viability ([1]; first compound 0.1581 µM): 0.211
- relative viability ([1]; first compound 0.5 µM): 0.128
- relative viability ([2]; first compound 0.02 µM): 0.752
- relative viability ([2]; first compound 0.2 µM): 0.851
- relative viability ([2]; first compound 0.6325 µM): 0.693
- relative viability ([2]; first compound 2 µM): 0.488
- relative viability ([3]; first compound 0.02 µM): 0.495
- relative viability ([3]; first compound 0.2 µM): 0.566
- relative viability ([3]; first compound 0.6325 µM): 0.47
- relative viability ([3]; first compound 2 µM): 0.353
